Positions of bridges follow the written chain, without caps; N, C: chain ends. Non-standard residues stand in square brackets, D forms with d. hCys = N[C@@H](CCS)C(=O)O

The record followed here is patent US20060293223A1 (Eli Lilly and Company Patent Division, priority 2003, published 2006).
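Further: ratio of EC50 values obtained at MC1 versus MC4 receptors, with MC1 potency measured by luciferase reporter activity in stably transfected cells expressing human MC1.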

In this assay the test system is MC1/MC4. To be noted: ratio MC1/MC4.
Turning to “Ac-Tyr-Arg-cyclo[Cys-Glu-(2-pyrazine-Ala)-D-Phe-Arg-Trp-Cys]-NH2 [Compound 105]”, the MC1/MC4 selectivity is given as 24.04.
Regarding “Ac-Tyr-Arg-cyclo[Cys-Glu-(3-Me-His)-D-Phe-Arg-Trp-Cys]-NH2 [Compound 96]”, the MC1/MC4 selectivity is listed as 20.87.
In the case of “Ac-Tyr-Arg-cyclo[Cys-Glu-(4-phenyl-1H-imidazol-2-yl-Ala)-D-Phe-Arg-Trp-Cys]-NH2 [Compound 103]”, the MC1/MC4 selectivity is 75.59.
For “Ac-Tyr-Arg-cyclo[Cys-Glu-(4-phenyl-1H-imidazol-2-yl-D-Ala)-D-Phe-Arg-Trp-Cys]-NH2 [Compound 104]” the value was 3.68.
With “Ac-Tyr-Arg-cyclo[Cys-Glu-(5-Me-D-His)-D-Phe-Arg-Trp-Cys]-NH2 [Compound 98]”, the MC1/MC4 selectivity worked out at 7.43.
As to “Ac-Tyr-Arg-cyclo[Cys-Glu-(5-Me-His)-D-Phe-Arg-Trp-Cys]-NH2 [Compound 97]”, the MC1/MC4 selectivity amounted to 8.03.
Consider “Ac-Tyr-Arg-cyclo[Cys-Glu-(β-(1,2,4-triazol-3-yl))-Ala)-D-Phe-Arg-Trp-Cys]-NH2 [Compound 106]”, for which the MC1/MC4 selectivity stood at 23.95.
Take “Ac-Tyr-Arg-cyclo[Cys-Glu-(β-(1,2,4-triazol-3-yl))-D-Ala)-D-Phe-Arg-Trp-Cys]-NH2 [Compound 107]”: the MC1/MC4 selectivity is 1.00.
Consider “Ac-Tyr-Arg-cyclo[Cys-Glu-(β-(1,3-thiazol-4-yl)-Ala)-D-Phe-Arg-Trp-Cys]-NH2 [Compound 112]”, for which the MC1/MC4 selectivity turned out to be 5.62.
As for “Ac-Tyr-Arg-cyclo[Cys-Glu-(β-(2-furyl)-Ala)-D-Phe-Arg-Trp-Cys]-NH2 [Compound 110]”, the MC1/MC4 selectivity is 4.27.
“Ac-Tyr-Arg-cyclo[Cys-Glu-(β-((1-benzyl)-1,2,4-triazol-3-yl))-D-Ala)-D-Phe-Arg-Trp-Cys]-NH2 [Compound 108]”: the MC1/MC4 selectivity is 5.99.
For “Ac-Tyr-Arg-cyclo[Cys-Glu-(β-((1-benzyl)-1,2,4-triazol-3-yl))-D-Ala)-D-Phe-Arg-Trp-Cys]-NH2 [Compound 109]” the value was 6.05; for “Ac-Tyr-Arg-cyclo[Cys-Glu-(β-(pyridin-4-yl)-Ala)-D-Phe-Arg-Trp-Cys]-NH2 [Compound 113]”, 13.51.
Take “Ac-Tyr-Arg-cyclo[Cys-Glu-(β-(thien-2-yl)-Ala)-D-Phe-Arg-Trp-Cys]-NH2 [Compound 111]”: the MC1/MC4 selectivity turned out to be 7.67.
Consider “Ac-Tyr-Arg-cyclo[Cys-Glu-His-(4-Br-D-Phe)-Arg-Trp-Cys]-NH2 [Compound 89]”, for which the MC1/MC4 selectivity stood at 71.43.
Take “Ac-Tyr-Arg-cyclo[Cys-Glu-His-(4-Cl-D-Phe)-Arg-Trp-Cys]-NH2 [Compound 86]”: the MC1/MC4 selectivity amounted to 66.21.
With “Ac-Tyr-Arg-cyclo[Cys-Glu-His-(4-F-D-Phe)-Arg-Trp-Cys]-NH2 [Compound 83]”, the MC1/MC4 selectivity is 45.95.
The value for “Ac-Tyr-Arg-cyclo[Cys-Glu-His-(4-Me-D-Phe)-Arg-Trp-Cys]-NH2 [Compound 92]” was 12.06.
Take “Ac-Tyr-Arg-cyclo[Cys-Glu-His-(4-OMe-D-Phe)-Arg-Trp-Cys]-NH2 [Compound 93]”: the MC1/MC4 selectivity is on record as 1.48.
“Ac-Tyr-Arg-cyclo[Cys-Glu-His-D-Phe-Arg-Trp-Cys] alcohol [Compound 78]”: the MC1/MC4 selectivity is reported as 9.00.
Consider “Ac-Tyr-Arg-cyclo[Cys-Glu-His-D-Phe-Arg-Trp-Cys]-2-(2-aminoethoxy)ethanol [Compound 115]”, for which the MC1/MC4 selectivity was 2.00.
Take “Ac-Tyr-Arg-cyclo[Cys-Glu-His-D-Phe-Arg-Trp-Cys]-Lys-Pro alcohol [Compound 122]”: the MC1/MC4 selectivity was 0.90.
On to “Ac-Tyr-Arg-cyclo[Cys-Glu-His-D-Phe-Arg-Trp-Cys]-NH2 [Compound 72]”, for which the MC1/MC4 selectivity worked out at 22.31.
Turning to “Ac-Tyr-Arg-cyclo[Cys-Glu-His-D-Phe-Arg-Trp-Cys]-NH-(CH2)6-NH2 [Compound 117]”, the MC1/MC4 selectivity is given as 1.00.
As to “Ac-Tyr-Arg-cyclo[Cys-Glu-His-D-Phe-Arg-Trp-Cys]-OH [Compound 73]”, the MC1/MC4 selectivity came out at 12.77.
Regarding “Ac-Tyr-Arg-cyclo[Cys-Glu-His-D-Phe-Arg-Trp-Cys]-Ser alcohol [Compound 116]”, the MC1/MC4 selectivity is 4.00.
Turning to “Ac-Tyr-Arg-cyclo[Cys-Glu-His-D-Phe-Arg-Trp-Cys]-Ser-Pro alcohol [Compound 120]”, the MC1/MC4 selectivity was found to be 1.00.
On to “Ac-Tyr-Arg-cyclo[Cys-Glu-His-D-Phe-Arg-Trp-Cys]-glycinol [Compound 114]”, for which the MC1/MC4 selectivity was determined as 4.00.
“Ac-Tyr-Arg-cyclo[Cys-Glu-His-D-Phe-Arg-Trp-hCys]-NH2 [Compound 192]”: the MC1/MC4 selectivity came out at 1.00.
For “Ac-Tyr-Arg-cyclo[D-Cys-Glu-His-D-Phe-Arg-Trp-Cys]-NH2 [Compound 80]” the value was 8.24.
Take “Ac-Tyr-Arg-cyclo[hCys-Glu-His-D-Phe-Arg-Trp-Cys]-NH2 [Compound 166]”: the MC1/MC4 selectivity is listed as 9.38.
For “Ac-Tyr-Arg-cyclo[hCys-Glu-His-D-Phe-Arg-Trp-hCys]-NH2 [Compound 197]” the value was 1.00; for “Ac-Tyr-Cit-cyclo[Cys-Glu-(1-Me-His)-D-Phe-Arg-Trp-Cys]-NH2 [Compound 125]”, 25.08.
For the substance “Ac-Tyr-Cit-cyclo[Cys-Glu-His-D-Phe-Arg-Trp-Cys]-NH2 [Compound 124]”, the MC1/MC4 selectivity worked out at 18.11.
The value for “Ac-Tyr-D-Arg-cyclo[Cys-Glu-His-D-Phe-Arg-Trp-Cys]-NH2 [Compound 79]” was 21.79; that for “Ac-Tyr-hArg-cyclo[Cys-Glu-His-D-Phe-Arg-Trp-Cys]-NH2 [Compound 126]” was 22.64.
With “Ac-VCEH[dF]RWC-NH2 (disulfide 2-8) [Compound 63]”, the MC1/MC4 selectivity worked out at 30.51.
For “Ac-YKCEH[dF]RWC-NH2 (disulfide 3-9) [Compound 128]”, the MC1/MC4 selectivity turned out to be 22.46.
Regarding “Ac-YRCDH[dF]RWC-NH2 (disulfide 3-9) [Compound 7]”, the MC1/MC4 selectivity turned out to be 15.00.
With “Ac-YRCEH[dF]RWCE-NH2 (disulfide 3-9) [Compound 118]”, the MC1/MC4 selectivity is reported as 4.52.
As to “Ac-YRCEH[dF]RWCKP-NH2 (disulfide 3-9) [Compound 121]”, the MC1/MC4 selectivity is reported as 0.74.
With “Ac-YRCEH[dF]RWCRF-NH2 (disulfide 3-9) [Compound 123]”, the MC1/MC4 selectivity is reported as 2.42.
As to “Ac-YRCEH[dF]RWCSP-NH2 (disulfide 3-9) [Compound 119]”, the MC1/MC4 selectivity was determined as 0.86.
Turning to “Ac-YRCFH[dF]RWC-NH2 (disulfide 3-9) [Compound 19]”, the MC1/MC4 selectivity is reported as 7.64.
In the case of “Ac-YRCGH[dF]RWC-NH2 (disulfide 3-9) [Compound 12]”, the MC1/MC4 selectivity is given as 6.72.
With “Ac-YRCIH[dF]RWC-NH2 (disulfide 3-9) [Compound 14]”, the MC1/MC4 selectivity was 12.54.
As for “Ac-YRCMH[dF]RWC-NH2 (disulfide 3-9) [Compound 18]”, the MC1/MC4 selectivity was 8.15.
For the substance “Ac-YRCNH[dF]RWC-NH2 (disulfide 3-9) [Compound 5]”, the MC1/MC4 selectivity turned out to be 5.00.
Take “Ac-YRCPH[dF]RWC-NH2 (disulfide 3-9) [Compound 20]”: the MC1/MC4 selectivity was determined as 4.81.
As to “Ac-YRCQH[dF]RWC-OH (disulfide 3-9) [Compound 9]”, the MC1/MC4 selectivity came to 10.00.
Turning to “Ac-YRCQH[dF]RWC-OMe (disulfide 3-9) [Compound 10]”, the MC1/MC4 selectivity was 9.50.
Consider “Ac-YRCRH[dF]RWC-NH2 (disulfide 3-9) [Compound 4]”, for which the MC1/MC4 selectivity was determined as 0.26.
For the substance “Ac-YRCSH[dF]RWC-NH2 (disulfide 3-9) [Compound 21]”, the MC1/MC4 selectivity came out at 10.27.
Consider “Ac-YRCTH[dF]RWC-NH2 (disulfide 3-9) [Compound 22]”, for which the MC1/MC4 selectivity is recorded as 6.85.
For “Ac-YRCVH[dF]RWC-NH2 (disulfide 3-9) [Compound 25]” the value was 11.00; for “Ac-YRCWH[dF]RWC-NH2 (disulfide 3-9) [Compound 23]”, 10.54.
For the substance “Ac-YRCYH[dF]RWC-NH2 (disulfide 3-9) [Compound 24]”, the MC1/MC4 selectivity was found to be 8.00.
Turning to “Ac-YR[hCys]H[dF]RWC-NH2 (disulfide 3-8) [Compound 164]”, the MC1/MC4 selectivity is reported as 7.79.
For “Ac-YR[hCys]H[dF]RWC-OH (disulfide 3-8) [Compound 165]” the value was 13.53; for “Ac-YR[hCys]H[dF]RW[hCys]-NH2 (disulfide 3-8) [Compound 196]”, 4.98; for “Ac-YSCEH[dF]RWC-NH2 (disulfide 3-9) [Compound 129]”, 22.16.
Regarding “Ac-YVCEH[dF]RWC-NH2 (disulfide 3-9) [Compound 130]”, the MC1/MC4 selectivity is on record as 26.88.
For the substance “Ac-[hCys]H[dF]RW[hCys]-NH2 (disulfide 1-6) [Compound 193]”, the MC1/MC4 selectivity is recorded as 26.59.
Consider “Ac-cyclo(S—CH2—S)[Cys-His-D-Phe-Arg-Trp-Cys]-NH2 [Compound 198]”, for which the MC1/MC4 selectivity is reported as 13.07.
The value for “Ac-cyclo[Cys-Glu-(1-Me-His)-D-Phe-Arg-Trp-Cys]-NH2 [Compound 34]” was 11.52; that for “Ac-cyclo[Cys-Glu-His-(4-Br-D-Phe)-Arg-Trp-Cys]-NH2 [Compound 33]” was 79.54; that for “Ac-cyclo[Cys-Glu-His-(4-Cl-D-Phe)-Arg-Trp-Cys]-NH2 [Compound 32]” was 66.88.
For “Ac-cyclo[Cys-Glu-His-(4-F-D-Phe)-Arg-Trp-Cys]-NH2 [Compound 31]”, the MC1/MC4 selectivity is 57.02.
As to “Ac-cyclo[Cys-His-(4-Cl-D-Phe)-Arg-Trp-hCys]-NH2 [Compound 185]”, the MC1/MC4 selectivity turned out to be 269.59.
As to “Ac-cyclo[Cys-His-D-Phe-Arg-Trp-hCys]-NH2 [Compound 183]”, the MC1/MC4 selectivity stood at 53.39.
